Results published in ChEMBL document CHEMBL6177973, “A Novel Compound 3a-M1, from Metabolites of Sinomenine Derivative 3a, Exerts Potent Anti-Aplastic Anemia Activity via IP3R/ORAI-Mediated CTL Ferroptosis” (J Med Chem, 2025).
The source made the active and inactive calls. The rule behind the calls is not given here.

Experiments:
[1] = Stability in rat plasma at 50 mg/kg, po measured for 24 hrs by HPLC analysis; format: ADME, organism-based; conditions: in vivo
[2] = Stability in rat plasma at 37 degreeC; format: ADME, cell-free
[3] = Stability in mouse plasma at 37 degreeC; format: ADME, cell-free
[4] = Drug metabolism in rat plasma assessed as cinnamic acid metabolite formation at 50 mg/kg, po measured for 24 hrs by HRMS analysis; format: ADME, organism-based; conditions: in vivo
[5] = Drug metabolism in rat plasma assessed as double hydrolyzation/hydroxylation-mediated metabolite formation at 50 mg/kg, po measured for 24 hrs by HRMS analysis; format: ADME, organism-based; conditions: in vivo
[6] = Drug metabolism in rat plasma assessed as double hydrolyzation/double demethylation-mediated metabolite formation at 50 mg/kg, po measured for 24 hrs by HRMS analysis; format: ADME, organism-based; conditions: in vivo
[7] = Drug metabolism in rat plasma assessed as cinnamic acid metabolite formation at 50 mg/kg, po measured for 24 hrs by HPLC-UV analysis; format: ADME, organism-based; conditions: in vivo
[8] = Stability in mouse lymph node assessed as compound remaining at 50 mg/kg, po measured for 0.083 to 8 hrs by HPLC analysis; format: ADME, organism-based; conditions: in vivo, time 0.083-8 hrs
[9] = Stability in mouse spleen assessed as compound remaining at 50 mg/kg, po measured for 0.083 to 8 hrs by HPLC analysis; format: ADME, organism-based; conditions: in vivo, time 0.083-8 hrs
[10] = Stability in mouse liver assessed as compound remaining at 50 mg/kg, po measured for 0.083 to 8 hrs by HPLC analysis; format: ADME, organism-based; conditions: in vivo, time 0.083-8 hrs
[11] = Stability in mouse kidney assessed as compound remaining at 50 mg/kg, po measured for 0.083 to 8 hrs by HPLC analysis; format: ADME, organism-based; conditions: in vivo, time 0.083-8 hrs
[12] = Drug metabolism in Sprague-Dawley rat plasma assessed as cinnamic acid metabolite formation at 50 mg/kg, po measured for 24 hrs by HPLC analysis; format: ADME, organism-based; conditions: in vivo
[13] = Drug metabolism in mouse bone marrow assessed as cinnamic acid metabolite formation at 50 mg/kg, po measured for 0.083 to 8 hrs by HPLC analysis; format: ADME, organism-based; conditions: in vivo, time 0.083-8 hrs
[14] = Drug metabolism in mouse thymus assessed as cinnamic acid metabolite formation at 50 mg/kg, po measured for 0.083 to 8 hrs by HPLC analysis; format: ADME, organism-based; conditions: in vivo, time 0.083-8 hrs
[15] = Drug metabolism in mouse liver assessed as cinnamic acid metabolite formation at 50 mg/kg, po measured for 0.083 to 8 hrs by HPLC analysis; format: ADME, organism-based; conditions: in vivo, time 0.083-8 hrs
[16] = Cmax in Sprague-Dawley rat at 50 mg/kg, po measured for 0.083 to 24 hrs by HPLC analysis; format: ADME, organism-based; conditions: in vivo, time 0.083-24 hrs
Mus musculus [17] = assay: Anti-aplastic anemia activity in BALB/c mouse model of immune-mediated bone marrow failure assessed as increase in hemoglobin level at 10 mg/kg, po treated for 14 days; format: functional, organism-based; conditions: time 14.0 day
Mus musculus [18] = assay: Anti-aplastic anemia activity in BALB/c mouse model of immune-mediated bone marrow failure assessed as restoration of nucleated to red blood cell ratio in bone marrow at 10 mg/kg, po treated for 14 days by H and E staining based analysis; format: functional, organism-based; conditions: time 14.0 day
Mus musculus [19] = assay: Anti-aplastic anemia activity in C57BL/6J mouse model of immune-mediated bone marrow failure assessed as increase in dietary intake at 5 to 15 mg/kg, IG qd treated for 21 days; format: functional, organism-based; conditions: dose 5-15 mg/kg, time 21.0 day
Mus musculus [20] = assay: Anti-aplastic anemia activity in C57BL/6J mouse model of immune-mediated bone marrow failure assessed as CD4+ T cells at 10 mg/kg, IG qd treated for 12 days by flow cytometry (reference value: 12.93 %); format: functional; conditions: time 12 day
Mus musculus [21] = assay: Anti-aplastic anemia activity in C57BL/6J mouse model of immune-mediated bone marrow failure assessed as decrease in CD8+ T cells at 5 to 15 mg/kg, IG qd treated for 12 days by flow cytometry; format: functional, organism-based; conditions: dose 5-15 mg/kg, time 12.0 day
Mus musculus [22] = assay: Anti-aplastic anemia activity in C57BL/6J mouse model of immune-mediated bone marrow failure assessed as reduction in proportion of effector CD8+ T cells at 5 to 15 mg/kg, IG qd treated for 12 days by flow cytometry; format: functional, organism-based; conditions: dose 5-15 mg/kg, time 12.0 day
Mus musculus [23] = assay: Anti-aplastic anemia activity in C57BL/6J mouse model of immune-mediated bone marrow failure assessed as restoration of naive CD8+ T cells at 5 to 15 mg/kg, IG qd treated for 12 days by flow cytometry; format: functional, organism-based; conditions: dose 5-15 mg/kg, time 12.0 day
CD8-positive T cell = assay: Inhibition of CD3/CD28-activated CD8-positive T cell activation in BALB/c mouse lymph nodes assessed as decrease in TNF-alpha level at 1 to 10 uM incubated for 72 hrs by ELISA; format: functional, tissue-based; conditions: Lymph node, dose 1-10 µM
CTLL-2 [24] = assay: Cytotoxicity against mouse CTLL-2 cells assessed as inhibition of cell viability incubated for 72 hrs by CCK8 assay; format: functional, cell-based; conditions: CTLL-2, 72 h, read-out: IC50
THP-1 = assay: Cytotoxicity against human THP-1 cells assessed as inhibition of cell viability incubated for 72 hrs by CCK8 assay; format: functional, cell-based; conditions: THP-1, 72 h
CTLL-2 [25] = assay: Induction of ferroptosis in mouse CTLL-2 cells assessed as increase in pMEK level at 7.5 to 30 uM incubated for 16 hrs by Western blot analysis; format: functional, cell-based; conditions: dose 7.5-30 µM
CTLL-2 [26] = assay: Induction of ferroptosis in IL-2-stimulated mouse CTLL-2 cells assessed as increase in intracellular lipid peroxidation level at 30 uM incubated for 6 hrs followed by Fer-1 addition measured after 10 hrs by flow cytometry; format: functional, cell-based; conditions: time 16.0 hrs
CTLL-2 [27] = assay: Induction of ferroptosis in IL-2-stimulated mouse CTLL-2 cells assessed as increase in pMEK level at 30 uM incubated for 6 hrs followed by Fer-1 addition measured after 10 hrs by Western blot analysis; format: functional, cell-based; conditions: time 16.0 hrs
CTLL-2 [28] = assay: Induction of ferroptosis in IL-2-stimulated mouse CTLL-2 cells assessed as increase in p-p38 level at 30 uM incubated for 6 hrs followed by Fer-1 addition measured after 10 hrs by Western blot analysis; format: functional, cell-based; conditions: time 16.0 hrs
[29] = Induction of ferroptosis in mouse CTLL-2 cells assessed as increase in intracellular Ca2+ concentration incubated for 45 mins by Fluo-4 AM dye based analysis; format: functional, cell-based; conditions: CTLL-2, 0.75 h
CTLL-2 [30] = assay: Induction of ferroptosis in mouse CTLL-2 cells assessed as increase in intracellular Ca2+ concentration at 10 uM incubated for 60 mins in presence of EDTA by Fluo-4 AM dye based analysis; format: functional, cell-based
CTLL-2 [31] = assay: Induction of ferroptosis in mouse CTLL-2 cells assessed as increase in intracellular Ca2+ concentration at 10 uM incubated for 45 mins in presence of CM4620 by Fluo-4 AM dye based analysis; format: functional, cell-based
CTLL-2 [32] = assay: Induction of ferroptosis in mouse CTLL-2 cells assessed as increase in intracellular Ca2+ concentration in presence of 2-APB/CM4620 by Fluo-4 AM dye based analysis; format: functional, cell-based
HepG2 = assay: Induction of ferroptosis in human HepG2 cells assessed as increase in intracellular Ca2+ concentration at 10 uM by Fluo-4 AM dye based analysis; format: functional, cell-based
NRK-52E = assay: Induction of ferroptosis in rat NRK-52E cells assessed as increase in intracellular Ca2+ concentration at 10 uM by Fluo-4 AM dye based analysis; format: functional, cell-based

COC1=C[C@@H]2[C@@H]3Cc4c(COC(=O)/C=C/c5ccccc5)cc(OC)c(OC(=O)/C=C/c5ccccc5)c4[C@]2(CCN3C)CC1=O
Stability [1]: Unstable
Stability [2]: Unstable
Stability [3]: Unstable
Drug metabolism [4]: metabolite_notdetected
Drug metabolism [5]: metabolite_detected
Drug metabolism [6]: metabolite_detected
Drug metabolism [7]: metabolite_detected
Stability [8]: Unstable
Stability [9]: Unstable
Stability [10]: Unstable
Stability [11]: Unstable
Drug metabolism [12]: metabolite_detected
Drug metabolism [13]: metabolite_detected
Drug metabolism [14]: metabolite_detected
Drug metabolism [15]: metabolite_detected

COC1=C[C@@H]2[C@@H]3Cc4c(CO)cc(OC)c(OC(=O)/C=C/c5ccccc5)c4[C@]2(CCN3C)CC1=O
Cmax [16]: 3.59 µg/mL
Activity (Mus musculus [17]): Active
Activity (Mus musculus [18]): Active
Activity (Mus musculus [19]): Active
Activity (Mus musculus [20]): 21.08%
Activity (Mus musculus [21]): Active
Activity (Mus musculus [22]): Active
Activity (Mus musculus [23]): Active; Partial Restoration Of Naive Cd8+ T Cells Was Observed
inhibition (CD8-positive T cell): Active
IC50 (CTLL-2 [24]): 37.9 µM
IC50 (THP-1): 125 µM
Activity (CTLL-2 [25]): Active
Activity (CTLL-2 [26]): inactive
Activity (CTLL-2 [27]): inactive
Activity (CTLL-2 [28]): inactive
EC50 [29]: 10.1 µM
Activity (CTLL-2 [30]): Active
Activity (CTLL-2 [31]): inactive
Activity (CTLL-2 [32]): inactive
Activity (HepG2): Not active; Elevation Was Smaller Than In Mouse Ctll-2 Cells
Activity (NRK-52E): Not active; Elevation Was Smaller Than In Mouse Ctll-2 Cells
